Values of other authors, collected in patent publication US20160143979A1, “Long Pepper Extract an Effective Anticancer Treatment” (priority 2014, published 2016).

Test system: cancer cells
Settings: previous study

For `COc1cc(/C=C/C(=O)N2CCC=CC2=O)cc(OC)c1OC` [piperlongumine], the “concentration required for significant cell death induction” value is given as 10.
